Results from patent US20100056519A1, “COMPOSITION AND METHOD FOR REDUCING PLATELET ACTIVATION AND FOR THE TREATMENT OF THROMBOTIC EVENTS” (priority 2008, published 2010).

Key:
Assay type in all cases: cell-based, human
platelets [1] = assay: Whole blood (impedance) aggregation with 1 μg/ml collagen; conditions: Mean ± SD
Method: (§1) The methodology employed was conventional aggregation induced by 5 μM ADP, 1 μg/ml collagen, 10 μM TRAP, whole blood aggregation with 1 μg/ml collagen, Ultegra, and PFA-100 Analyzers, expression of 14 intact, and TRAP-stimulated major receptors by whole blood flow cytometry were utilized to assess platelet activity after preincubation with escalating concentrations of E5555 (20 ng/ml, 50 ng/ml, and 100 ng/ml). The experiments were performed in healthy volunteers, CAD patients treated with ASA, and CAD patients treated with ASA and clopidogrel combination (n=10, for each group).
(§2) An Informed Consent was obtained from all volunteers. Drug users were excluded from data analysis. The study was approved by Quorum Institutional Review Board. All subjects underwent blood sampling after at least 30 minutes of rest and two or more hours of fasting. Blood (28 ml) was drawn between 8 and 10 a.m. in order to avoid any diurnal influence and sampled from an antecubital vein using a 21-gauge butterfly needle containing 3.2% sodium citrate (1:9 volume) after having discarded the first 1.5 ml of free running blood. Four Vacutainer tubes (7.0 ml) were collected for a total of 28 ml of whole blood-citrate mixture from each study participant. Chronologically, blood samples were delivered to the core laboratory facility within 45 minutes after drawing. Then all tubes of blood-citrate mixture were pooled. One portion of pooled blood (5 ml) was kept as an internal control and pretreated with the vehicle. The remaining blood (23 ml) was used for the in vitro exposure to E5555 at concentrations of 20 ng/ml, 50 ng/ml, and 100 ng/ml. […] The platelet aggregation studies, Rapid Analyzers measures, and flow cytometry preparations were initiated within no more than 110 minutes following the blood draw, incubation with the drug, and preparation of the samples.
(§3) Whole blood aggregation was determined using a Chronolog device 592A. The whole blood-citrate mixture was diluted 1:1 with 0.5 ml phosphate buffered saline and gently swirled. The sample then was allowed to warm to 37° C. for 5 minutes then transferred to the assay well. The electrode was then placed in the cuvette and the sample was stimulated with 1 μg/ml collagen. The change in electrical impedance was digitally recorded. Each whole blood sample was analyzed utilizing 2 different clinical devices: • (1) a Rapid Platelet-Function Assay (Ultegra®) (Accumetrics, Inc., San Diego, Calif.), which is a rapid platelet-function assay aspirin cartridge test with TRAP used as agonist. Polystyrene beads coated with fibrinogen are placed in a cartridge along with the peptide that activates thrombin receptor. Anticoagulated whole blood was added to the cartridge, and agglutination between platelets and coated beads was recorded. The data mirrors turbidimetric platelet aggregation and presumably reflects platelet glycoprotein IIb/IIIa blockade. Ultegra RPFA-TRAP Assay results were reported as Platelet Activation Units (PAU); and • (2) Platelet-Function Analyzer PFA-100 ™ (Dade Behring, Deerfield Ill.), which is a high shear-inducing analyzer that simulates primary hemostasis after injury to a small vessel under flow conditions. The device provides a constant negative pressure that aspirates whole blood, which comes into contact with the collagen, coated membrane and then passes through the aperture. The time required to obtain occlusion of the aperture is digitally recorded. The time to aperture occlusion (the closure time) is recorded in seconds and is inversely related to the degree of shear-induced platelet activation. We used ADP/Collagen cartridges in the index study. Both PFA-100 and Ultegra assays were performed in duplicate. An electronic quality control test was performed on each instrument daily prior to performing any patient samples.

platelets [2] = assay: Ultegra Rapid Platelet-Function Assay (RPFA-TRAP); conditions: for Platelet Activation Units (PAU): Mean ± SD
Method: as §1, §2, §3

GP37 (CD165) = assay: Unstimulated whole blood flow cytometry, GP37; conditions: Mean ± SD
Method: as §1, §2
(§4) Formation of platelet-leukocyte aggregates was assessed by dual labeling with pan-platelet marker (CD151), and then with CD14, the macrophage receptor for endotoxin lipopolysaccharides (PharMingen, and Coulter, San Diego, Calif., USA). The tubes were then covered with aluminum foil and incubated at 37° C. for 40 minutes with gentle rotation. After incubation, samples were immediately analyzed on a Becton Dickinson FACScan flow cytometer. The instrument was set up to measure forward light scatter, and FITC fluorescence. All parameters were collected using four-decade logarithmic amplification. The data was retrieved in list mode files and then analyzed. P selectin was expressed as percent positive cells. Other antigens were expressed as log mean fluorescence intensity.

[3] = test system: Thrombospondin-Receptor (CD36); assay: Unstimulated whole blood flow cytometry, thrombospondin receptor; conditions: for Thrombospondin-Receptor (CD36), Mean Fluorescence Intensity: unstimulated, Mean ± SD
Method: as §1, §2, §4

PECAM-1 (CD31) = assay: TRAP-stimulated whole blood flow cytometry, PECAM-1; conditions: Mean ± SD
Method: as §1, §2, §4
For flow cytometry (TRAP-stimulated) all of the above flow cytometry experiments were identically repeated utilizing prestimulation with 10 μmol/L TRAP for 5 minutes at 37° C. To determine statistics, a Paired Sign Test was used to define significance of differences between vehicle and E5555-treated groups. The Mann-Whitney U test was used to analyze nonparametric data. Normally distributed data were expressed as mean±standard error (m±SE), and skewed data as median (range). All P-values were two sided. All analysis was performed using the SPSS v9.0 program (SPSS Inc., Chicago, Ill.).

[4] = E5555 20 ng/ml, Patients (ASA + C)
[5] = E5555 50 ng/ml, Patients (ASA + C)
[6] = E5555 100 ng/ml, Patients (ASA + C)
[7] = E5555 100 ng/ml, Patients (ASA)

Br.CCOc1cc2c(c(F)c1OCC)C(=N)N(CC(=O)c1cc(N3CCOCC3)c(OC)c(C(C)(C)C)c1)C2 [E5555, 1-(3-tert-butyl-4-methoxy-5-morpholinophenyl)-2-(5,6-diethoxy-7-fluoro-1-imino-1,3-dihydro-2H-isoindol-2-yl)ethanone hydrobromide]
Platelet Aggregation, Whole Blood Collagen 1 μg/mL (platelets [1]; E5555 20 ng/ml, CAD patients treated with ASA + clopidogrel): 13 ± 5 ohms
Platelet Aggregation, Whole Blood Collagen 1 μg/mL (platelets [1]; E5555 20 ng/ml, CAD patients treated with ASA): 11 ± 4 ohms
Platelet Aggregation, Whole Blood Collagen 1 μg/mL (platelets [1]; E5555 20 ng/ml, healthy volunteers): 22 ± 5 ohms
Platelet Aggregation, Whole Blood Collagen 1 μg/mL (platelets [1]; E5555 50 ng/ml, CAD patients treated with ASA + clopidogrel): 12 ± 7 ohms
Platelet Aggregation, Whole Blood Collagen 1 μg/mL (platelets [1]; E5555 50 ng/ml, CAD patients treated with ASA): 14 ± 6 ohms
Platelet Aggregation, Whole Blood Collagen 1 μg/mL (platelets [1]; E5555 50 ng/ml, healthy volunteers): 25 ± 7 ohms
Platelet Aggregation, Whole Blood Collagen 1 μg/mL (platelets [1]; E5555 100 ng/ml, CAD patients treated with ASA + clopidogrel): 14 ± 4 ohms
Platelet Aggregation, Whole Blood Collagen 1 μg/mL (platelets [1]; E5555 100 ng/ml, CAD patients treated with ASA): 12 ± 5 ohms
Platelet Aggregation, Whole Blood Collagen 1 μg/mL (platelets [1]; E5555 100 ng/ml, healthy volunteers): 22 ± 6 ohms
Platelet Activation Units (PAU) (platelets [2]; [4]): 115 ± 21 PAU
Platelet Activation Units (PAU) (platelets [2]; E5555 20 ng/ml, Patients (ASA)): 118 ± 12 PAU
Platelet Activation Units (PAU) (platelets [2]; E5555 20 ng/ml, Volunteers): 270 ± 30 PAU
Platelet Activation Units (PAU) (platelets [2]; [5]): 108 ± 20 PAU
Platelet Activation Units (PAU) (platelets [2]; E5555 50 ng/ml, Patients (ASA)): 114 ± 11 PAU
Platelet Activation Units (PAU) (platelets [2]; E5555 50 ng/ml, Volunteers): 126 ± 20 PAU
Platelet Activation Units (PAU) (platelets [2]; [6]): 112 ± 18 PAU
Platelet Activation Units (PAU) (platelets [2]; [7]): 113 ± 14 PAU
Platelet Activation Units (PAU) (platelets [2]; E5555 100 ng/ml, Volunteers): 117 ± 21 PAU
Platelet Analyzer readings, fibrinogen binding, effect in words (platelets [2]; overall summary): diminished fibrinogen binding
Ultegra Analyzer PAU, effect in words (platelets [2]; volunteers and CAD patients on ASA alone or with clopidogrel): reduction of PAU
GP37 (CD165), Mean Fluorescence Intensity (GP37 (CD165); [4]): 25 ± 11 MFI
GP37 (CD165), Mean Fluorescence Intensity (GP37 (CD165); E5555 20 ng/ml, Patients (ASA)): 30 ± 7 MFI
GP37 (CD165), Mean Fluorescence Intensity (GP37 (CD165); E5555 20 ng/ml, Volunteers): 27 ± 8 MFI
GP37 (CD165), Mean Fluorescence Intensity (GP37 (CD165); [5]): 28 ± 10 MFI
GP37 (CD165), Mean Fluorescence Intensity (GP37 (CD165); E5555 50 ng/ml, Patients (ASA)): 27 ± 12 MFI
GP37 (CD165), Mean Fluorescence Intensity (GP37 (CD165); E5555 50 ng/ml, Volunteers): 28 ± 7 MFI
GP37 (CD165), Mean Fluorescence Intensity (GP37 (CD165); [6]): 25 ± 12 MFI
GP37 (CD165), Mean Fluorescence Intensity (GP37 (CD165); [7]): 28 ± 11 MFI
GP37 (CD165), Mean Fluorescence Intensity (GP37 (CD165); E5555 100 ng/ml, Volunteers): 26 ± 6 MFI
thrombospondin receptor expression, effect in words ([3]; overall summary, stimulation not stated): significant reduction
Thrombospondin-Receptor (CD36), Mean Fluorescence Intensity [3, 4]: 6.8 ± 1.9 MFI
Thrombospondin-Receptor (CD36), Mean Fluorescence Intensity ([3]; E5555 20 ng/ml, Patients (ASA)): 7.2 ± 0.5 MFI
Thrombospondin-Receptor (CD36), Mean Fluorescence Intensity ([3]; E5555 20 ng/ml, Volunteers): 8.4 ± 1.1 MFI
Thrombospondin-Receptor (CD36), Mean Fluorescence Intensity [3, 5]: 7.0 ± 1.0 MFI
Thrombospondin-Receptor (CD36), Mean Fluorescence Intensity ([3]; E5555 50 ng/ml, Patients (ASA)): 7.0 ± 0.7 MFI
Thrombospondin-Receptor (CD36), Mean Fluorescence Intensity ([3]; E5555 50 ng/ml, Volunteers): 8.2 ± 0.8 MFI
Thrombospondin-Receptor (CD36), Mean Fluorescence Intensity [3, 6]: 7.1 ± 1.2 MFI
Thrombospondin-Receptor (CD36), Mean Fluorescence Intensity [3, 7]: 7.4 ± 0.9 MFI
Thrombospondin-Receptor (CD36), Mean Fluorescence Intensity ([3]; E5555 100 ng/ml, Volunteers): 8.4 ± 1.0 MFI
PECAM-1 (CD31), Mean Fluorescence Intensity (PECAM-1 (CD31); [4]): 58 ± 9 MFI
PECAM-1 (CD31), Mean Fluorescence Intensity (PECAM-1 (CD31); E5555 20 ng/ml, Patients (ASA)): 50 ± 6 MFI
PECAM-1 (CD31), Mean Fluorescence Intensity (PECAM-1 (CD31); E5555 20 ng/ml, Volunteers): 60 ± 9 MFI
PECAM-1 (CD31), Mean Fluorescence Intensity (PECAM-1 (CD31); [5]): 60 ± 7 MFI
PECAM-1 (CD31), Mean Fluorescence Intensity (PECAM-1 (CD31); E5555 50 ng/ml, Patients (ASA)): 54 ± 9 MFI
PECAM-1 (CD31), Mean Fluorescence Intensity (PECAM-1 (CD31); E5555 50 ng/ml, Volunteers): 55 ± 10 MFI
PECAM-1 (CD31), Mean Fluorescence Intensity (PECAM-1 (CD31); [6]): 57 ± 11 MFI
PECAM-1 (CD31), Mean Fluorescence Intensity (PECAM-1 (CD31); [7]): 52 ± 12 MFI
PECAM-1 (CD31), Mean Fluorescence Intensity (PECAM-1 (CD31); E5555 100 ng/ml, Volunteers): 60 ± 7 MFI
